“Also recorded” adds a separate entry of the source.
Legend:
[1] = molecular target: HLA-A*0201 molecule of T2 cells (Homo sapiens, UniProt P04439, D140Y/D185E/D98H/E176V/E277Q/G131W/G231S/I119V/I121R/I166T/I218V/L300P/L318F/N151K/N90K/P208A/P217A/Q86G/Q94H/R138H/R169H/T345S); assay: MHC-peptide complex stabilization assay on T2 cells; format: binding; parameters: key: FI = (MFI sample − MFI background) / MFI background; conditions: serum-free RPMI 1640, 1 h 37°C, 12 h 26°C, 3 h 37°C, FITC anti-HLA-A*0201, flow cytometry, FI = (MFI sample - MFI background)/MFI background
Description: Figure 1 The affinity of candidate epitopes for HLA-A*0201 molecules. T2 cells were incubated in RPMI 1640 medium lacking peptides (red) or containing low peptide (1 μg/ml) (green) or intermediate peptide (10 μg/ml) (purple) or high peptide (100 μg/ml) (blue) for 15 h and stained with FITC-conjugated anti-HLA-A*0201 antibody. Then, mean fluorescence intensity (MFI) was measured using flow cytometry.
The ability of peptides to stabilize MHC molecules on the surface of T2 cells was measured as described previously. T2 cells (2 × 10^5 cells/0.5 ml) were incubated in serum-free RPMI 1640 medium in the presence of different concentrations of peptide (1, 10, 100 μg/ml) for 1 h at 37°C/5% CO2 incubator. Cells were then incubated at 26°C for 12 h, and then returned to 37°C for a 3 h incubation. Finally, T2 cells were stained with FITC-conjugated anti-HLA-A*0201 antibody (BD Pharmingen, USA) for 40 min at 4°C. T2 cells incubated in serum-free RPMI 1640 medium without peptides served as a negative control (background). Mean fluorescence intensity (MFI) of T2 cells was recorded with a FACS Calibur flow cytometer (BD bioscience, USA), and results expressed as fluorescence index (FI). The following formula was used to calculate the FI.
(1) FI=MFI sample-MFI background/MFI background

[2] = tested on: HLA-A*0201 transgenic mice; assay: ICS assay for CD8+ IFN-γ+ T cells in splenocytes of peptide-immunized mice; format: in vivo, mouse; conditions: for ICS CD8^+IFN-γ^+T cells, proportion in CD8^+ T cells: mice immunized s.c. with peptide 50 μg/mouse in Freund's adjuvant, 5 weekly doses, splenocytes stimulated with cognate peptide 10 μg/ml, 6 h, brefeldin A, CD3+CD8+ gate, mean ± SD, 4 mice/group, SD; for Cross-reactivity of peptide-specific CD8^+ T cells towards heterologous variant peptides: splenocytes of peptide-immunized mice stimulated with heterologous peptide 10 μg/ml, ELISPOT and ICS (Figures 4 and 7), result in words
Description: (§1) HLA-A*0201 transgenic mice were subdivided into 12 groups (4 mice/group). Mice were inoculated subcutaneously with high-affinity peptide (50 μg/mouse) emulsified in Freund’s complete adjuvant. One week later, mice were immunized with the same peptide emulsified in Freund’s incomplete adjuvant. Mice were boosted three more times at weekly intervals. Mock-immunized (adjuvant alone) HLA-A*0201 transgenic mice and peptide-immunized C57BL/6 mice served as controls. One week after the final immunization, all mice were sacrificed and splenocytes extracted. ELISPOT and ICS assays were conducted to detect the frequencies of peptide-specific IFN-γ-producing cells. All animal were performed following the Institutional Animal Care and Use Committee-approved protocols.
Splenocytes were cultured with either cognate peptide (10 μg/ml) or heterologous peptide (10 μg/ml) in a 1.5 ml microcentrifuge tube for 6 h at 37°C/5% CO2. […] During the last 5 h, brefeldin A (10 μg/ml) was added to each tube. After a 6 h incubation, cells were washed and then stained with APC-conjugated anti-mouse CD3 and FITC-conjugated anti-mouse CD8 antibodies (eBioscience company, USA) for 40 min at 4°C. Cells were then washed and fixed with 4% paraformaldehyde for 20 min at 4°C, permeabilized using 0.5% saponin for 10 min at 4 °C, and stained with PE-conjugated anti-mouse IFN-γ antibody (eBioscience company, USA) for 40 min at 4°C. A FACS Calibur flow cytometer (BD Bioscience, USA) was used to analyze labeled cells. CD3^+ CD8^+ T cells were gated and the proportion of IFN-γ-producing CD8^+ T cells (CD8^+ IFN-γ^+ T cells) as a subset of all CD8^+ T cells were determined.

[3] = tested on: HLA-A*0201 transgenic mice; assay: IFN-γ ELISPOT assay on splenocytes of peptide-immunized mice; format: in vivo; conditions: mice immunized s.c. with peptide 50 μg/mouse in Freund's adjuvant, 5 weekly doses, splenocytes stimulated with cognate peptide 10 μg/ml, 24 h, background subtracted, mean ± SD, 4 mice/group
Description: as §1
Splenocytes were resuspended to a final concentration of 1 × 10^6 cells/ml in RPMI 1640 medium supplemented with 10% fetal bovine serum (FBS). ELISPOT assays were performed in pre-coated 96-well plates (U-CyTech Company, Netherlands). Splenocytes were seeded at 1 × 10^5 cells/well and exposed to either cognate or heterologous peptide at a final concentration of 10 μg/ml. Negative control wells contained splenocytes but no peptide. Positive control wells included cells plus phytohemagglutinin (PHA) at a final concentration of 10 μg/ml. All tests were carried out in duplicate wells, with plates incubated for 24 h at 37°C/5% CO2. Plates were washed and then incubated with biotinylated anti-mouse IFN-γ for 1 h at 37°C. After washing, plates were labeled with streptavidin-horseradish peroxidase, and developed using fresh ACE solution as a substrate. IFN-γ spots were counted using an ELISPOT reader (Beijing SageCreation Science Co. Ltd, Beijing, China). Peptide-specific T-cell frequency was expressed as SFCs/1 × 10^5 splenocytes. Background spots (negative control wells) were subtracted from test wells. A positive response to a peptide was defined as having > 5 SFCs/1 × 10^5 splenocytes after subtraction of the background.

Row | Sequence | FI (fluorescence index) ([1]; peptide 1 μg (1 μg/ml)) | FI (fluorescence index) ([1]; peptide 10 μg (10 μg/ml)) | FI (fluorescence index) ([1]; peptide 100 μg (100 μg/ml)) | ICS CD8^+IFN-γ^+T cells, proportion in CD8^+ T cells [2] [%] | Cross-reactivity of peptide-specific CD8^+ T cells towards heterologous variant peptides [2] | ELISPOT IFN-γ spot-forming cells [3] [SFCs/1×10^5cells] | FI (fluorescence index) ([1]; peptide 100 μg (100 μg/ml), listed as D3V-NS4b182–190) | FI (fluorescence index) ([1]; peptide 100 μg (100 μg/ml), listed as D1V-NS2a144–152) | FI (fluorescence index) ([1]; peptide 100 μg (100 μg/ml), listed as D4V-NS4b179–187) | FI (fluorescence index) ([1]; peptide 100 μg (100 μg/ml), listed as D3V-NS2a144–152) | FI (fluorescence index) ([1]; peptide 100 μg (100 μg/ml), listed as D1V-NS4b183–191) | FI (fluorescence index) ([1]; peptide 100 μg (100 μg/ml), listed as D2V-NS4b182–190) | FI (fluorescence index) ([1]; peptide 100 μg (100 μg/ml), listed as D2V-NS2a144–152)
1 | MLLALIAVL [D1V-NS4a56-64] | 0.05 | 0.05 | 0.08 | – | – | – | – | – | – | – | – | – | –
2 | LLMRTSWAL [D3V-NS4b182-190, D3V variant peptide of D1V-NS4b183-191, nonapeptide …] | 0.22 | 0.65 | 3.6 | 0.27 ± 0.07 | cross-reacted with each other | 24 ± 5 | > 1 | – | – | – | – | – | –
3 | QLWAALLSL [D1V-NS2a144-152] | 0.05 | 0.22 | 1.12 | 0.41 ± 0.07 | – | 36 ± 6 | – | exceeds 1 | – | – | – | – | –
4 | LLMRTTWAF [D4V-NS4b179-187, D4V variant peptide of D1V-NS4b183-191, nonapeptide …] | 0.2 | 0.59 | 4.4 | 0.16 ± 0.06 | cross-reacted with each other | 22±4 | – | – | > 4 | – | – | – | –
5 | QLWTALVSL [D3V-NS2a144-152, D3V variant peptide of D1V-NS2a144-152, nonapeptide …] | 0.2 | 0.45 | 2.6 | 0.79 ± 0.15 | – | 62 ± 9 | – | – | – | > 1 | – | – | –
6 | LLMRTTWAL [D1V-NS4b183-191] | 0.29 | 0.4 | 1.95 | 0.44 ± 0.09 | marked cross-reactivity; also recorded: cross-reacted with each other | 42 ± 7 | – | – | – | – | exceeds 1 | – | –
7 | QVGTLALSL [D4V-NS2a143-151, D4V variant peptide of D1V-NS2a144-152, nonapeptide …] | 0.22 | 0.2 | 0.8 | 0.13 ± 0.06 | – | 12 ± 3 | – | – | – | – | – | – | –
8 | AMVLSIVSL [D1V-NS2a169-177] | 0.03 | 0.05 | 0.04 | – | – | – | – | – | – | – | – | – | –
9 | LVMAFMAFL [D1V-C46-54] | 0.01 | 0.02 | 0.02 | – | – | – | – | – | – | – | – | – | –
10 | LMMRTTWAL [D2V-NS4b182-190, D2V variant peptide of D1V-NS4b183-191, nonapeptide …] | 0.58 | 3.42 | 4.8 | 0.37 ± 0.09 | cross-reacted with each other | 37 ± 5 | – | – | – | – | – | > 4 | –
11 | TILTIIGLI [D4V-NS4a140-148, D4V variant peptide of D1V-NS4a140-148, nonapeptide …] | 0.15 | 0.3 | 1.08 | 0.21 ± 0.05 | – | 17 ± 5 | – | – | – | – | – | – | –
12 | GILTLAAIV [D3V-NS4a140-148, D3V variant peptide of D1V-NS4a140-148, nonapeptide …] | 0.1 | 0.15 | – | 0.37 ± 0.08 | – | 37 ± 6 | – | – | – | – | – | – | –
13 | AILTVVAAT [D2V-NS4a140-148, D2V variant peptide of D1V-NS4a140-148, nonapeptide …] | 0.1 | 0.2 | 1.2 | 0.12 ± 0.05 | – | 10 ± 3 | – | – | – | – | – | – | –
14 | QLAVTIMAI [D2V-NS2a144-152, D2V variant peptide of D1V-NS2a144-152, nonapeptide …] | 0.24 | 0.39 | 3.85 | 0.21 ± 0.05 | – | 21±3 | – | – | – | – | – | – | > 1

— paper PMC3546861, “HLA-A*0201-restricted CD8^+ T-cell epitopes identified in dengue viruses” (Virology Journal, 2012)
